Test results taken from US20250179059A1 (The Regents of the University of California, priority 2021, published 2025).

Legend:
[1] = tested on: human SKM-1 acute myeloid leukemia cells; test: SKM-1 antiproliferation cell-based assay (ATPlite); settings: Homo sapiens, SKM-1, SKM-1 antiproliferation assay
Experimental: The cell-based assay indirectly measures cell density (and therefore proliferation and/or survival) by detecting total ATP concentration in a homogeneous format. Briefly, human SKM-1 acute myeloid leukemia cells (Leibniz Institute DSMZ #ACC 547) proliferating in log phase are collected by centrifugation, re-suspended in culture media (RPMI 1640/15% FBS/100 U/mL penicillin/100 μg/mL streptomycin) and diluted to 34722 cells/mL in media after counting. Then 180 μL cells are plated per well into a 96-well tissue-culture treated, clear bottom plate (Coming #3603). A 96-well compound plate (Corning #3357) is then generated by serial dilution of compounds into DMSO over nine concentrations and adding separate negative (DMSO) and positive control (reference compound) wells. Each compound concentration is tested in triplicate. First, 1 μL from each well of the compound plate is added to 99 μL culture media in an intermediate plate and mixed by pipetting. Then 20 μL of the diluted compounds in media are added to the assay plate containing the cells. The assay plate is maintained for 4 days in a standard cell culture incubator. At the end of the incubation period, 100 μL ATPlite Istep (PerkinElmer) is added to the assay plate wells, and the resulting luminescence is detected using an Infinite M1000 or a Spark multimode plate reader (Tecan). Data analysis is performed in Prism (GraphPad Software). For curve fitting, a non-linear regression, variable slope equation is used to calculate cellular IC50s.

[2] = target: T1, human BRD4 bromodomain II (Homo sapiens, UniProt O60885); test: Bromodomain binding assay (AlphaScreen), BRD4 BDII; settings: AlphaScreen assay, Table C2; read-out: BRD4 BDII IC50
T1 construct: human BRD4 bromodomain II [based on Genbank NM_058243, residues 349-460]; host or cells: E. coli
How it was run: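 AlphaScreen competition: His6-BRD4 BDI (aa 44-170) or BDII (aa 349-460) vs biotin-H4(1-21) K5/K8/K12/K16Ac peptide; Ni-chelate acceptor/streptavidin donor beads. HEPES pH 7.5, NaCl, CHAPS, BSA, 1% DMSO; RT. 10-pt 3-fold titration, % peptide binding fitted → IC50.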

GI50 [1] | IC50 [2] | Structure (SMILES)
0.3 to 30 nM | – | COc1ncc(-c2nc(F)cc(-c3ccc(-n4ccn(C)c4=O)c(Cl)c3)c2O)cc1N1CCN(C(C)(C)C)CC1 [Example 1044, 1-(4-(5′-(4-(tert-Butyl)piperazin-1-yl)-6-fluoro-3-hydroxy-6′-methoxy-[2,3′-bipyridin]-4-yl)-2-chlorophenyl)-3-methyl-1H-imidazol-2(3H)-one]
0.3 to 30 nM | – | CC1=CCN(c2ccc(-c3cc(C)nc(-c4cccc(N5CCN(C(C)(C)C)CC5)c4)c3O)cc2Cl)C1=O [Example 1055, 1-(4-(2-(3-(4-(tert-butyl)piperazin-1-yl)phenyl)-3-hydroxy-6-methylpyridin-4-yl)-2-chlorophenyl)-3-methyl-1,5-dihydro-2H-pyrrol-2-one]
– | > 100 nM | COc1cccc(-c2cccc(-c3ccc(NC(C)=O)c(F)c3)c2O)c1 [Example 56, N-(3-fluoro-2′-hydroxy-3″-methoxy-[1,1′:3′,1″-terphenyl]-4-yl)acetamide]
– | 10 to 100 nM | O=C1CCCN1c1ccc(-c2cccc(-c3ccncc3)c2O)cc1F [Example 190, 1-(3-fluoro-2′-hydroxy-3′-(pyridin-4-yl)-[1,1′-biphenyl]-4-yl)pyrrolidin-2-one]
– | 10 to 100 nM | CC(=O)Nc1ccc(-c2cccc(-c3ccc(NC(C)=O)c(F)c3)c2O)cc1C [Example 50, N,N′-(3-Fluoro-2′-hydroxy-3″-methyl-[1,1′:3′,1″-terphenyl]-4,4″-diyl)diacetamide]
– | > 100 nM | CC(=O)Nc1ccc(-c2cccc(-c3cnn(-c4ccc(F)cc4)c3)c2O)cc1 [Example 16, N-(3′-(1-(4-Fluorophenyl)-1H-pyrazol-4-yl)-2′-hydroxy-[1,1′-biphenyl]-4-yl)acetamide]
– | 10 to 100 nM | CC(=O)Nc1c(F)cc(-c2cccc(-c3cc(N4CCNCC4)no3)c2O)cc1F [Example 86, N-(3,5-Difluoro-2′-hydroxy-3′-(3-(piperazin-1-yl)isoxazol-5-yl)-[1,1′-biphenyl]-4-yl)acetamide 2,2,2-trifluoroacetate]
– | > 100 nM | CC(=O)Nc1ccc(-c2cccc(-c3ccc4occc4c3)c2O)cc1F [Example 119, N-(3′-(Benzofuran-5-yl)-3-fluoro-2′-hydroxy-[1,1′-biphenyl]-4-yl)acetamide]
– | > 100 nM | CC(=O)Nc1ccc(-c2cccc(-c3cnc4[nH]ccc4c3)c2O)cc1F [Example 124, N-(3-fluoro-2′-hydroxy-3′-(1H-pyrrolo[2,3-b]pyridin-5-yl)-[1,1′-biphenyl]-4-yl)acetamide]
– | > 100 nM | CCOC(=O)c1cccc(-c2cccc(-c3ccc(NC(C)=O)c(F)c3)c2O)c1 [Example 70, Ethyl 4″-acetamido-3″-fluoro-2′-hydroxy-[1,1′:3′,1″-terphenyl]-3-carboxylate]
– | 10 to 100 nM | CC(=O)Nc1ccc(-c2cccc(-c3cccc(N4CCNC[C@@H]4C)c3)c2O)cc1F [Example 168, (S)-N-(3-fluoro-2′-hydroxy-3″-(2-methylpiperazin-1-yl)-[1,1′:3′,1″-terphenyl]-4-yl)acetamide]
– | 10 to 100 nM | CC(=O)Nc1ccc(-c2cccc(-c3cccc(N4C[C@H]5CC[C@@H](C4)N5)c3)c2O)cc1F [Example 176, N-(3″-((1R,5S)-3,8-diazabicyclo[3.2.1]octan-3-yl)-3-fluoro-2′-hydroxy-[1,1′:3′,1″-terphenyl]-4-yl)acetamide]
– | > 100 nM | CC(=O)Nc1ccc(-c2cccc(-c3ccc4c(c3)CCN4)c2O)cc1F [Example 137, N-(3-fluoro-2′-hydroxy-3′-(indolin-5-yl)-[1,1′-biphenyl]-4-yl)acetamide]
– | 10 to 100 nM | O=C1CCCN1c1ccc(-c2cccc(-c3cc(N4CCNCC4)no3)c2O)cc1F [Example 113, 1-(3-Fluoro-2′-hydroxy-3′-(3-(piperazin-1-yl)isoxazol-5-yl)-[1,1′-biphenyl]-4-yl)pyrrolidin-2-one]
– | > 100 nM | CC(=O)N1CCC(=O)Nc2cc(-c3cccc(-c4cc(N5CCNCC5)no4)c3O)ccc21 [Example 29, 5-Acetyl-8-(2-hydroxy-3-(3-(piperazin-1-yl)isoxazol-5-yl)phenyl)-4,5-dihydro-1H-benzo[b][1,4]diazepin-2(3H)-one 2,2,2-trifluoroacetate]
– | > 100 nM | CC(=O)Nc1ccc(-c2cccc(-c3ccc(N4CCNCC4)cc3)c2O)cc1F [Example 108, N-(3-Fluoro-2′-hydroxy-4″-(piperazin-1-yl)-[1,1′:3′,1″-terphenyl]-4-yl)acetamide]

GI50 [1] | IC50 [2] | Structure (SMILES)
– | 10 to 100 nM | O=C1CCCN1c1c(F)cc(-c2cccc(-c3cc(N4CCNCC4)no3)c2O)cc1F [Example 140, 1-(3,5-difluoro-2′-hydroxy-3′-(3-(piperazin-1-yl)isoxazol-5-yl)-[1,1′-biphenyl]-4-yl)pyrrolidin-2-one]
– | 10 to 100 nM | CC(=O)Nc1ccc(-c2cccc(-c3cc(N4CCNCC4)ccc3F)c2O)cc1F [Example 187, N-(2″,3-difluoro-2′-hydroxy-5″-(piperazin-1-yl)-[1,1′:3′,1″-terphenyl]-4-yl)acetamide]
– | > 100 nM | CC(=O)Nc1ccc(-c2cccc(-c3cccc(C(F)(F)F)c3)c2O)cc1F [Example 78, N-(3-Fluoro-2′-hydroxy-3″-(trifluoromethyl)-[1,1′:3′,1″-terphenyl]-4-yl)acetamide]
– | > 100 nM | O=C(Nc1ccc(-c2cccc(-c3cc(N4CCNCC4)no3)c2O)cc1)C(F)F [Example 48, 2,2-Difluoro-N-(2′-hydroxy-3′-(3-(piperazin-1-yl)isoxazol-5-yl)-[1,1′-biphenyl]-4-yl)acetamide 2,2,2-trifluoroacetate]
– | > 100 nM | CC(=O)Nc1ccc(-c2cccc(-c3cccc(-c4cn[nH]c4)c3)c2O)cc1F [Example 246, N-(3-fluoro-2′-hydroxy-3″-(1H-pyrazol-4-yl)-[1,1′:3′,1″-terphenyl]-4-yl)acetamide]
– | > 100 nM | CC(=O)Nc1ccc(-c2cccc(-c3ccc4ocnc4c3)c2O)cc1F [Example 122, N-(3′-(Benzo[d]oxazol-5-yl)-3-fluoro-2′-hydroxy-[1,1′-biphenyl]-4-yl)acetamide]
– | 10 to 100 nM | CC(=O)Nc1ccc(-c2cccc(-c3ccc(NC(C)=O)c(F)c3)c2O)cc1 [Example 99, N,N′-(3-Fluoro-2′-hydroxy-[1,1′:3′,1″-terphenyl]-4,4″-diyl)diacetamide]
– | > 100 nM | COc1cc(-c2cccc(-c3ccc(NC(C)=O)c(F)c3)c2O)ccc1F [Example 157, N-(3,4″-difluoro-2′-hydroxy-3″-methoxy-[1,1′:3′,1″-terphenyl]-4-yl)acetamide]
– | 10 to 100 nM | CC(=O)Nc1ccc(-c2cccc(-c3ccc4ncncc4c3)c2O)cc1F [Example 142, N-(3-fluoro-2′-hydroxy-3′-(quinazolin-6-yl)-[1,1′-biphenyl]-4-yl)acetamide]
– | 10 to 100 nM | CC(=O)Nc1ccc(-c2cccc(-c3cc(N4CCNCC4)no3)c2O)cc1OC1CC2(COC2)C1 [Example 28, N-(3-(2-Oxaspiro[3.3]heptan-6-yloxy)-2′-hydroxy-3′-(3-(piperazin-1-yl)isoxazol-5-yl)-[1,1′-biphenyl]-4-yl)acetamide 2,2,2-trifluoroacetate]
– | > 100 nM | COc1cc(-c2cccc(-c3ccc(NC(C)=O)c(F)c3)c2O)ccn1 [Example 97, N-(3-Fluoro-2′-hydroxy-3′-(2-methoxypyridin-4-yl)-[1,1′-biphenyl]-4-yl)acetamide]
– | > 100 nM | CCNC(=O)c1ccc(-c2cccc(-c3ccc(NC(C)=O)c(F)c3)c2O)cc1 [Example 92, 4″-Acetamido-N-ethyl-3″-fluoro-2′-hydroxy-[1,1′:3′,1″-terphenyl]-4-carboxamide]
– | 1 to 10 nM | CC(=O)Nc1ccc(-c2cccc(-c3ccnc(N4CCC(CO)CC4)c3)c2O)cc1F [Example 198, N-(3-fluoro-2′-hydroxy-3′-(2-(4-(hydroxymethyl)piperidin-1-yl)pyridin-4-yl)-[1,1′-biphenyl]-4-yl)acetamide]
– | > 100 nM | CC(=O)Nc1ccc(-c2cccc(-c3ccc(N4CCOCC4)cc3)c2O)cc1F [Example 94, N-(3-Fluoro-2′-hydroxy-4″-morpholino-[1,1′:3′,1″-terphenyl]-4-yl)acetamide]
– | 10 to 100 nM | CC(=O)Nc1ccc(-c2cccc(-c3cccc(N4CCC5(CC4)CNC5)c3)c2O)cc1F [Example 196, N-(3-fluoro-2′-hydroxy-3″-(2,7-diazaspiro[3.5]nonan-7-yl)-[1,1′:3′,1″-terphenyl]-4-yl)acetamide]
– | 10 to 100 nM | COc1cc(-c2cccc(-c3ccc(N4CCCC4=O)c(F)c3)c2O)ccc1NC(C)=O [Example 129, N-(3″-Fluoro-2′-hydroxy-3-methoxy-4″-(2-oxopyrrolidin-1-yl)-[1,1′:3′,1″-terphenyl]-4-yl)acetamide]

Structure (SMILES) | GI50 [1] | IC50 [2]
CC(=O)Nc1c(F)cc(-c2cccc(-c3cccc(N4CCNCC4)c3)c2O)cc1OC1CCC1 [Example 167, N-(3-cyclobutoxy-5-fluoro-2′-hydroxy-3″-(piperazin-1-yl)-[1,1′:3′,1″-terphenyl]-4-yl)acetamide] | – | 1 to 10 nM
